# Laboratory results: US6418341B1, “Needle electrode assembly for electroporation mediated delivery of genes and drugs” (Genetronics, Inc., priority 1993, dated 2002)
# “Also recorded” adds a separate entry of the source. Marks after values point to notes of the source that are not given here.
# What was measured:
# cancerous tumors = details: low dose injected, tumors then electroporated with square wave pulses; cited from earlier work
# [1] = tested on: non-small cell lung cancer cell line (NSCLC), 177; test: Electrochemotherapy (ECT) of non-small cell lung cancer xenografts in nude mice; type: in vivo; details: for Overall outcome of the electrochemotherapy protocol: needle array electrodes
# Description: (§1) The mice were monitored every day for mortality and any signs of a diseased state were noted. The tumor dimensions were measured at regular intervals and tumor growth regression/progression monitored. Another set of nude mice with xenografts of non-small cell lung cancer line was also treated by the same procedure as for the Panc-3 tumors.
# (§2) The Panc-3 and NSCLC models were utilized with the drug neocarcinostatin (NCS) following the same procedures as outlined above. […] It was believed that due to the low isoelectric point of NCS, electrostatic interaction prevented the drug from entering the tumor cell. Therefore, the experiment was repeated by pulsing first and injecting NCS post-pulse.
# [2] = tested on: poorly differentiated human pancreatic tumor (Panc-3); test: Electrochemotherapy (ECT) of Panc-3 tumors xenografted subcutaneously in nude mice; type: in vivo; details: for Overall outcome of the electrochemotherapy protocol: needle array electrodes
# Description: The following examples illustrate the use of electrochemotherapy (ECT) of a poorly differentiated human pancreatic tumor (Panc-3) xenografted subcutaneously on the left flank of nude mice. The single treatment procedure involved injection of bleomycin (0.5 units in 0.15 ml saline) intratumorally, using fanning, as described herein followed by application of six square wave electrical pulses, ten minutes later, using proprietary needle array electrodes arranged along the circumference of a circle 1 cm in diameter. Needle array of variable diameters (e.g., 0.5 cm, 0.75 cm and 1.5 cm can also be used to accommodate tumors of various sizes. Stoppers of various heights can be inserted at the center of the array to make the penetration depth of the needles into the tumor variable. A built-in mechanism allowed switching of electrodes for maximum coverage of the tumor by the pulsed field. The electrical parameters were: 1300 V/cm and 6×99 μs pulses spaced at 1 sec interval.
# The tumor cell line Panc-3, a poorly differentiated adenocarcinoma cell line of the pancreas, was supplied by AntiCancer, Inc., San Diego. For ECT experiments, tissue taken from the stock mice, where the tumor fine was maintained, was thawed and cut into very small pieces about 1 mm each, and 8-10 pieces were surgically xenografted in a subcutaneous sac made in left flank of nude mice, and then closed with 6.0 surgical suture. After the average tumor size reached about 5 mm, mice with palpable tumors were divided randomly, 10 mice for control group (D+E−; D=Drug, E=Electric field) and 10 mice for ECT treatment namely bleomycin injection followed by pulsing (D+E+) from a BTX Square Wave T820 Generator. The tumor dimensions were measured and the tumor volume calculated using the formula: […]
# where a, b, and c are, respectively, the length, width and thickness of the tumor. 0.5 units Bleomycin (Sigma Chemicals) was dissolved in 0.15 ml of 0.9% NaCl and was injected in each mice intratumorally by fanning for both the control (D+E−) and the treated (D+E+) groups. Ten minutes after the injection, each mouse in the D+E+ group was pulsed from a BTX T820 square wave electroporator with a set of needle array electrodes as described in the present invention. Electrical parameters used were as follows: field strength 1300 V/cm, 6 pulses of 99 μs each, at 1 sec interval.
# as §1, §2
# [3] = P = partition coefficient between octanol and water; cited from earlier work
# [4] = ECT, 10 mice treated, 28 days after treatment
# [5] = ECT, 10 mice treated, 35 days after treatment
# [6] = ECT, 10 mice treated, 57 days after treatment
# [7] = ECT, 10 mice treated, 77 days after treatment
substance,measurement,setting,value
bleomycin,Tumor response,cancerous tumors,reduction or complete remission of the tumors
same,Result of ECT treatment on tumor volume,"[1]; ECT as for Panc-3, FIGS. 12a, 12b",very encouraging results
same,Overall outcome of the electrochemotherapy protocol,[1],effectively treated
same,Tumor after retreatment of a recurred tumor,"[1]; one mouse retreated at day 27, 7 days after retreatment (FIG. 13)",no evidence of tumor
same,Histological analysis of tumor samples,[2]; D+E+ group (ECT),severe necrosis of the tumor region; also recorded: necrotic tumor cell ghosts
same,Cases with partial regression (80% reduction in tumor volume),[2]; ECT (D+E+),30%
same,Necrosis and edema at the treatment site,[2]; ECT (D+E+),severe necrosis and edema in nearly all the mice
same,Mice with tumor regrowth,"[2]; ECT (D+E+), 35 days after treatment, much slower growth rate than control",20%
same,Cases with complete regression with no palpable tumor,"[2]; ECT (D+E+), 77 days after the single treatment",60%
same,Time after which essentially no detectable tumor,"[2]; ECT (D+E+), FIG. 10",approximately 24 days
same,"CR (100%), Complete Regression, number of mice",[2]; [4],6
same,"NR (%), No Response, number of mice",[2]; [4],1
same,"PR (80%), Partial Regression, number of mice",[2]; [4],3
same,"CR (100%), Complete Regression, number of mice",[2]; [5],6
same,"NR (%), No Response, number of mice",[2]; [5],1
same,"Tumor regrowth, number of mice",[2]; [5],2
same,"CR (100%), Complete Regression, number of mice",[2]; [6],6
same,"NR (%), No Response, number of mice",[2]; [6],1
same,"CR (100%), Complete Regression, number of mice",[2]; [7],6
same,"NR (%), No Response, number of mice",[2]; [7],1
same,"Death, number of mice","[2]; ECT, 10 mice treated, 77 days after treatment, 1 died after retreatment, 1 after 64 days survival",2*
same,Effect of intratumoral injection with larger volume combined with fanning,[2]; compared to the conventional mode of injecting the drug prior to pulsing,very effective
same,Change of tumor volume,"[2]; control group D+E- (drug, no electrical field)",increased dramatically
same,Tumor volume (mm^3) C1,"[2]; control mouse C1 (D+E-), 1 day after treatment",206.979 mm^3
same,Tumor volume (mm^3) C1,"[2]; control mouse C1 (D+E-), 8 days after treatment",394.786 mm^3
same,Tumor volume (mm^3) C1,"[2]; control mouse C1 (D+E-), 15 days after treatment",557.349 mm^3
same,Tumor volume (mm^3) C1,"[2]; control mouse C1 (D+E-), 18 days after treatment",939.582 mm^3
same,Tumor volume (mm^3) C1,"[2]; control mouse C1 (D+E-), 24 days after treatment",1391.057 mm^3
same,Tumor volume (mm^3) C1,"[2]; control mouse C1 (D+E-), 28 days after treatment",1628.631 mm^3
same,Tumor volume (mm^3) C1,"[2]; control mouse C1 (D+E-), 35 days after treatment",2619.765 mm^3
same,Tumor volume (mm^3) C1,"[2]; control mouse C1 (D+E-), 38 days after treatment",2908.912 mm^3
same,Tumor volume (mm^3) C1,"[2]; control mouse C1 (D+E-), 43 days after treatment",3708.571 mm^3
same,Tumor volume (mm^3) C1,"[2]; control mouse C1 (D+E-, bleomycin 0.5 units intratumoral, no pulsing), 0 days after treatment",138.746 mm^3
same,Tumor volume (mm^3) C2,"[2]; control mouse C2 (D+E-), 1 day after treatment",179.82 mm^3
same,Tumor volume (mm^3) C2,"[2]; control mouse C2 (D+E-), 8 days after treatment",451.787 mm^3
same,Tumor volume (mm^3) C2,"[2]; control mouse C2 (D+E-), 15 days after treatment",798.919 mm^3
same,Tumor volume (mm^3) C2,"[2]; control mouse C2 (D+E-), 18 days after treatment",881.752 mm^3
same,Tumor volume (mm^3) C2,"[2]; control mouse C2 (D+E-), 24 days after treatment",1406.98 mm^3
same,Tumor volume (mm^3) C2,"[2]; control mouse C2 (D+E-), 28 days after treatment",1474.21 mm^3
same,Tumor volume (mm^3) C2,"[2]; control mouse C2 (D+E-), 35 days after treatment",2330.31 mm^3
same,Tumor volume (mm^3) C2,"[2]; control mouse C2 (D+E-), 38 days after treatment",2333.967 mm^3
same,Tumor volume (mm^3) C2,"[2]; control mouse C2 (D+E-), 43 days after treatment",5381.759 mm^3
same,Tumor volume (mm^3) C2,"[2]; control mouse C2 (D+E-, bleomycin 0.5 units intratumoral, no pulsing), 0 days after treatment",148.94 mm^3
same,Overall outcome of the electrochemotherapy protocol,[2],effectively treated
same,Mice with no response,[2]; treated by ECT (D+E+),10%
same,Mice with nearly complete tumor regression,"[2]; treated by ECT (D+E+), after 28 days",90%
same,Change of tumor volume,"[2]; treated group D+E+, after a slight initial increase due to edema",substantial reduction in the tumor volume
same,Tumor volume (mm^3) T1,"[2]; treated mouse T1 (D+E+), 1 day after treatment",210.95 mm^3
same,Tumor volume (mm^3) T1,"[2]; treated mouse T1 (D+E+), 8 days after treatment",104.55 mm^3
same,Tumor volume (mm^3) T1,"[2]; treated mouse T1 (D+E+), 15 days after treatment",113.21 mm^3
same,Tumor volume (mm^3) T1,"[2]; treated mouse T1 (D+E+), 18 days after treatment",161.73 mm^3
same,Tumor volume (mm^3) T1,"[2]; treated mouse T1 (D+E+), 24 days after treatment",41.56 mm^3
same,Tumor volume (mm^3) T1,"[2]; treated mouse T1 (D+E+), 28 days after treatment",0 mm^3
same,Tumor volume (mm^3) T1,"[2]; treated mouse T1 (D+E+), 35 days after treatment",0 mm^3
same,Tumor volume (mm^3) T1,"[2]; treated mouse T1 (D+E+), 38 days after treatment",0 mm^3
same,Tumor volume (mm^3) T1,"[2]; treated mouse T1 (D+E+), 43 days after treatment",0 mm^3
same,Tumor volume (mm^3) T1,"[2]; treated mouse T1 (D+E+, bleomycin 0.5 units intratumoral + 1300 V/cm 6x99 μs pulses), 0 days after treatment",123.11 mm^3
same,Tumor volume (mm^3) T2,"[2]; treated mouse T2 (D+E+), 1 day after treatment",252.72 mm^3
same,Tumor volume (mm^3) T2,"[2]; treated mouse T2 (D+E+), 8 days after treatment",211.11 mm^3
same,Tumor volume (mm^3) T2,"[2]; treated mouse T2 (D+E+), 15 days after treatment",226.966 mm^3
same,Tumor volume (mm^3) T2,"[2]; treated mouse T2 (D+E+), 18 days after treatment",246.91 mm^3
same,Tumor volume (mm^3) T2,"[2]; treated mouse T2 (D+E+), 24 days after treatment",47.2228 mm^3
same,Tumor volume (mm^3) T2,"[2]; treated mouse T2 (D+E+), 28 days after treatment",0 mm^3
same,Tumor volume (mm^3) T2,"[2]; treated mouse T2 (D+E+), 35 days after treatment",0 mm^3
same,Tumor volume (mm^3) T2,"[2]; treated mouse T2 (D+E+), 38 days after treatment",0 mm^3
same,Tumor volume (mm^3) T2,"[2]; treated mouse T2 (D+E+), 43 days after treatment",0 mm^3
same,Tumor volume (mm^3) T2,"[2]; treated mouse T2 (D+E+, bleomycin 0.5 units intratumoral + 1300 V/cm 6x99 μs pulses), 0 days after treatment",178.37 mm^3
same,log P,[3],very negative
neocarcinostatin [NCS],Overall outcome of the electrochemotherapy protocol,[1],effectively treated
same,Reduction of tumor size,[1]; pre-pulse dosing (FIG. 14b),not effective in reducing tumor size at all
same,Post-pulse compared with pre-pulse administration,[2]; FIGS. 14a and b versus 14c and d,more effective than pre-pulse administration
same,Overall outcome of the electrochemotherapy protocol,[2],effectively treated
same,Final versus initial tumor volume,"[2]; post-pulse dosing, day 13, 7 mice, mouse ID 1, 2, 4 and 7, appeared to be due to edema (FIG. 14c)",an increase in tumor volume was observed
same,Change of tumor volume,"[2]; post-pulse dosing, day 23, separate group of 5 mice (FIG. 14d)",all mice showed a marked reduction in tumor volume
same,Reduction of tumor size,[2]; pre-pulse dosing (FIG. 14a),not effective in reducing tumor size at all
